Results as given in publication PMC10746543, “Design principles for cyclin K molecular glue degraders” (Nature Chemical Biology, 2023).
Several values for one entry are separate records, joined by “and”; a condition that tells them apart may be missing. Identical values can stand only once. Like-named read-outs stand apart in the source and are kept apart here.

Columns and labels:
HEK293T cells = test: Drug sensitivity assay (CellTiter-Glo viability) with or without MLN4924 pretreatment; format: cell-based, human; conditions: Supplementary Table 2; for EC50: Homo sapiens, HEK-293T, HEK293T viability, 72 h, compound alone, read-out: Cellular assays EC50; for Toxicity rescue: MLN4924-mediated cytotoxicity rescue, 10 µM used where n.d.
Summary of the method: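 Luminescent ATP read-out (CellTiter-Glo) after 3 days of drug exposure, normalised to DMSO controls. Cells were HEK293T–Cas9, pretreated with 100 nM MLN4924 or DMSO for 2 h before drug dispensing.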

CDK12–cyclin K and DDB1 = target: T1, CDK12–cyclin K and DDB1 (Homo sapiens, UniProt Q16531+Q9NYV4, K965R); test: TR-FRET ternary complex formation assay (compound titration); format: binding
T1 construct: His6–CDK12 (a.a. 713–1,052); full-length or beta-propeller B domain deletion (ΔBPB: a.a. 396–705 deleted) constructs of His6–DDB1ΔBPB, StrepII–Avi–DDB1, or His6–Spy–DDB1; made in house; host or cells: Trichoplusia ni High Five insect cells (baculovirus)
Summary of the method: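 TR-FRET ratio 520/490 nm; 70 μs delay before read to suppress background.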

[1] = in vitro complex formation, 50 nM CDK12–cyclin K, 100 nM DDB1, text and figures, read-out: TR-FRET EC50
[2] = source data sheet correlations, read-out: TR-FRET EC50
[3] = compound concentration 0.468 nM
[4] = compound concentration 7.92001 nM
[5] = compound concentration 15.84 nM
[6] = compound concentration 30.96 nM
[7] = compound concentration 62.6401 nM
[8] = compound concentration 79.2001 nM
[9] = compound concentration 125.28 nM
[10] = compound concentration 158.4 nM
[11] = compound concentration 244.8 nM
[12] = compound concentration 309.6 nM
[13] = compound concentration 626.401 nM
[14] = compound concentration 993.601 nM
[15] = compound concentration 1252.8 nM
[16] = compound concentration 2001.6 nM
[17] = compound concentration 9936.01 nM
[18] = compound concentration 20016 nM
[19] = sheet MOESM7, read-out: log TR-FRET EC50 (converted)

T1 sequence (Q9NYV4 713-1052 K965R): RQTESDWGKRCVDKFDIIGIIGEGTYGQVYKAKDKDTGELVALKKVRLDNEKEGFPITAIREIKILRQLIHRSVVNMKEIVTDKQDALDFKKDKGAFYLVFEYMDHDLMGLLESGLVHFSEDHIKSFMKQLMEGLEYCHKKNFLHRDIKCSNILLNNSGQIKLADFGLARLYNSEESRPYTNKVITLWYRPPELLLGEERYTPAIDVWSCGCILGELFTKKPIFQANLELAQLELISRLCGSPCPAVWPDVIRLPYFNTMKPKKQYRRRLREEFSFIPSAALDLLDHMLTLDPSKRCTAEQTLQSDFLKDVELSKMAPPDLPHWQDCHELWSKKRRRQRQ
T1 sequence (O75909 1-267 partner): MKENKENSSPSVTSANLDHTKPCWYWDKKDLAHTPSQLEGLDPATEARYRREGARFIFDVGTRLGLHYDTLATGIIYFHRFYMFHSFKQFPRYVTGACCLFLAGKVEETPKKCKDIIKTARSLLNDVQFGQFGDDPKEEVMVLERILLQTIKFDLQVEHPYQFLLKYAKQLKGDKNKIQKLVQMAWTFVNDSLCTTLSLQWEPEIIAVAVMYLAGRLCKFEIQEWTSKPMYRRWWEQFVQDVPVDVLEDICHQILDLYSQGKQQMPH
T1 sequence (Q16531 whole entry): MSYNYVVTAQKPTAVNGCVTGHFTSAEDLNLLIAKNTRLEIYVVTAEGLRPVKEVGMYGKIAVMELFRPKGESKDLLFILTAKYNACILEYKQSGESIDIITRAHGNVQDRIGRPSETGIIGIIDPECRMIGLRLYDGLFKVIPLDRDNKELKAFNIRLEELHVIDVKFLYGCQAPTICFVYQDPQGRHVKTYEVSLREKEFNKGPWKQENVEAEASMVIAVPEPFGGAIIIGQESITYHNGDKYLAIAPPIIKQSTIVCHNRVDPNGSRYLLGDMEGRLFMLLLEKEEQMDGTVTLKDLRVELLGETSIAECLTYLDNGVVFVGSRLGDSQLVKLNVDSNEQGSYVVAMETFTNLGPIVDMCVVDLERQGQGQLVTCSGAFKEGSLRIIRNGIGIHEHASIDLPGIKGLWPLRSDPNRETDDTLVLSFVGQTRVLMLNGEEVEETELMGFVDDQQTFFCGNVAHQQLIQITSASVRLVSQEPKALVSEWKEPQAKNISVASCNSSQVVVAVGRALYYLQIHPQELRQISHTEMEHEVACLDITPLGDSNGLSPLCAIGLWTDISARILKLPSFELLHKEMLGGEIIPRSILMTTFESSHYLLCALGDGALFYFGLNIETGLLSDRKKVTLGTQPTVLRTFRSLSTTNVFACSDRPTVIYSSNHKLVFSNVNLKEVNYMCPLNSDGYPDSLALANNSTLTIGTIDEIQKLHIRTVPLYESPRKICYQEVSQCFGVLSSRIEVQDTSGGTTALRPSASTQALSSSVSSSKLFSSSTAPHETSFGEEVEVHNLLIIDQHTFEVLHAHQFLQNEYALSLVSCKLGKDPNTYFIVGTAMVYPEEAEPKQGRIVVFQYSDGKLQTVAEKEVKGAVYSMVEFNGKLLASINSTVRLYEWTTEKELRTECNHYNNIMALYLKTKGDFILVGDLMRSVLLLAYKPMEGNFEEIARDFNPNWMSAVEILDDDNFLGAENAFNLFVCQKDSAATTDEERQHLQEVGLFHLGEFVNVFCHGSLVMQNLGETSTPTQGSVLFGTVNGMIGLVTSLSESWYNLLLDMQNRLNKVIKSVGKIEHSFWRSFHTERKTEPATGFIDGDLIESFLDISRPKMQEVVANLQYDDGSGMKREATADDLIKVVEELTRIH

Compound | EC50 (HEK293T cells) [nM] | Toxicity rescue (HEK293T cells) [%] | EC50 (CDK12–cyclin K and DDB1; [1]) [nM] | EC50 (CDK12–cyclin K and DDB1; [2]) [nM] | TR-FRET signal (CDK12–cyclin K and DDB1; [3]) | TR-FRET signal (CDK12–cyclin K and DDB1; compound concentration 2.16 nM) | TR-FRET signal (CDK12–cyclin K and DDB1; compound concentration 3.6 nM) | TR-FRET signal (CDK12–cyclin K and DDB1; compound concentration 4.68 nM) | TR-FRET signal (CDK12–cyclin K and DDB1; [4]) | TR-FRET signal (CDK12–cyclin K and DDB1; [5]) | TR-FRET signal (CDK12–cyclin K and DDB1; compound concentration 21.6 nM) | TR-FRET signal (CDK12–cyclin K and DDB1; [6]) | TR-FRET signal (CDK12–cyclin K and DDB1; compound concentration 36 nM) | TR-FRET signal (CDK12–cyclin K and DDB1; [7]) | TR-FRET signal (CDK12–cyclin K and DDB1; [8]) | TR-FRET signal (CDK12–cyclin K and DDB1; [9]) | TR-FRET signal (CDK12–cyclin K and DDB1; [10]) | TR-FRET signal (CDK12–cyclin K and DDB1; [11]) | TR-FRET signal (CDK12–cyclin K and DDB1; [12]) | TR-FRET signal (CDK12–cyclin K and DDB1; [13]) | also measured
Cc1cc2nc(CNc3nc(N4CCN(C)CC4)nc4c(Br)cnn34)[nH]c2cc1C [DS73, reference compound] | 2 | 850 | 15 ± 1 | 15.3 | – | – | – | – | – | – | – | – | – | – | – | – | – | – | – | – | TR-FRET signal at compound concentration 0.468 nM (CDK12–cyclin K and DDB1; compound concentration 0.468 nM, raw replicate titration data): 0.2078 and 0.3464 and 0.3268 and 0.2028; TR-FRET signal at compound concentration 2.16 nM (CDK12–cyclin K and DDB1; compound concentration 2.16 nM, raw replicate titration data): 0.3181 and 0.4574 and 0.408 and 0.306; TR-FRET signal at compound concentration 3.6 nM (CDK12–cyclin K and DDB1; compound concentration 3.6 nM, raw replicate titration data): 0.571 and 0.665 and 0.6145 and 0.5357; TR-FRET signal at compound concentration 7.92001 nM (CDK12–cyclin K and DDB1; compound concentration 7.92001 nM, raw replicate titration data): 1.164 and 1.12 and 0.9555 and 1.048; TR-FRET signal at compound concentration 15.84 nM (CDK12–cyclin K and DDB1; compound concentration 15.84 nM, raw replicate titration data): 2.581 and 2.125 and 1.889 and 2.1704; TR-FRET signal at compound concentration 30.96 nM (CDK12–cyclin K and DDB1; compound concentration 30.96 nM, raw replicate titration data): 3.773 and 3.741 and 3.496 and 3.714; TR-FRET signal at compound concentration 62.6401 nM (CDK12–cyclin K and DDB1; compound concentration 62.6401 nM, raw replicate titration data): 3.949 and 4.21 and 4.046 and 3.965; TR-FRET signal at compound concentration 125.28 nM (CDK12–cyclin K and DDB1; compound concentration 125.28 nM, raw replicate titration data): 3.981 and 4.358 and 4.135 and 3.99; TR-FRET signal at compound concentration 244.8 nM (CDK12–cyclin K and DDB1; compound concentration 244.8 nM, raw replicate titration data): 3.942 and 4.1851 and 4.076 and 4.006; TR-FRET signal at compound concentration 993.601 nM (CDK12–cyclin K and DDB1; compound concentration 993.601 nM, raw replicate titration data): 4.043 and 4.296 and 4.229 and 3.955; TR-FRET signal at compound concentration 2001.6 nM (CDK12–cyclin K and DDB1; compound concentration 2001.6 nM, raw replicate titration data): 4.148 and 4.166 and 4.035 and 3.981
O=C(CSc1nnc2c(n1)[nH]c1ccccc12)Nc1ccc(Cl)cn1 [dCeMM2] | 1420 | 398 | 83 ± 4 | 83.2 | 0.3316 and 0.3176 | 0.3609 and 0.3684 | 0.446 and 0.4561 | 0.2526 and 0.2575 | 0.6045 and 0.6093 | 0.8627 and 0.8782 | 0.6074 and 0.6249 | 1.396 and 1.344 | 1.231 and 1.287 | 1.902 and 1.956 | 2.008 and 2.099 | 2.531 and 2.559 | 2.698 and 2.725 | 3.133 and 3.085 | 3.151 and 3.239 | 3.549 and 3.629 | TR-FRET signal (CDK12–cyclin K and DDB1; [14]): 3.858 and 3.701; TR-FRET signal (CDK12–cyclin K and DDB1; [15]): 3.752 and 3.846; TR-FRET signal (CDK12–cyclin K and DDB1; [16]): 3.973 and 3.947; TR-FRET signal (CDK12–cyclin K and DDB1; compound concentration 2448 nM): 3.918 and 3.967; TR-FRET signal (CDK12–cyclin K and DDB1; [17]): 3.896 and 3.914; TR-FRET signal (CDK12–cyclin K and DDB1; [18]): 3.769 and 3.757; EC50 (CDK12–cyclin K and DDB1; [19]): 83.2 nM
O=C(CSc1nc2ccccc2[nH]1)Nc1ccc(Cl)cn1 [dCeMM3] | > 10000 | 0 | 263 ± 13 | – | 0.3108 and 0.3043 | 0.3247 and 0.3252 | 0.3605 and 0.3572 | 0.1862 and 0.1908 | 0.4123 and 0.4112 | 0.5374 and 0.5369 | 0.3061 and 0.3287 | 0.7082 and 0.7121 | 0.5639 and 0.6148 | 1.02 and 1.082 | 0.9671 and 1.036 | 1.467 and 1.538 | 1.482 and 1.527 | 2.062 and 2.196 | 2.068 and 2.079 | 2.602 and 2.623 | EC50 (CDK12–cyclin K and DDB1; Supplementary Table 2, read-out: TR-FRET EC50 TR-FRET): 263 nM; TR-FRET signal (CDK12–cyclin K and DDB1; [14]): 3.096 and 3.149; TR-FRET signal (CDK12–cyclin K and DDB1; [15]): 3.107 and 3.1711; TR-FRET signal (CDK12–cyclin K and DDB1; [16]): 3.3098 and 3.397; TR-FRET signal (CDK12–cyclin K and DDB1; compound concentration 2448 nM): 3.437 and 3.468; TR-FRET signal (CDK12–cyclin K and DDB1; [17]): 3.722 and 3.727; TR-FRET signal (CDK12–cyclin K and DDB1; [18]): 3.796 and 3.749; EC50 (CDK12–cyclin K and DDB1; [19]): 263 nM
Cc1ccc(C(=O)N2CSCC2C(=O)Nc2ncc(C)s2)o1 (stereo not drawn) [dCeMM4] | 2630 | 281 | 279 ± 12 | 279 | 0.3047 and 0.3012 | 0.3265 and 0.3171 | 0.3554 and 0.3435 | 0.2015 and 0.1931 | 0.4106 and 0.4108 | 0.4953 and 0.4972 | 0.3497 and 0.3693 | 0.6975 and 0.7097 | 0.6301 and 0.6713 | 1.033 and 1.024 | 1.054 and 1.091 | 1.438 and 1.46 | 1.569 and 1.639 | 2.039 and 2.019 | 2.287 and 2.2 | 2.739 and 2.6898 | TR-FRET signal (CDK12–cyclin K and DDB1; [14]): 3.062 and 3.005; TR-FRET signal (CDK12–cyclin K and DDB1; [15]): 3.187 and 3.255; TR-FRET signal (CDK12–cyclin K and DDB1; [16]): 3.478 and 3.348; TR-FRET signal (CDK12–cyclin K and DDB1; compound concentration 2448 nM): 3.234 and 3.447; TR-FRET signal (CDK12–cyclin K and DDB1; [17]): 3.901 and 3.875; TR-FRET signal (CDK12–cyclin K and DDB1; [18]): 3.981 and 3.769; EC50 (CDK12–cyclin K and DDB1; [19]): 279 nM
